Converted amounts (≈) assume the structure as drawn. “And” between values parts separate entries of the source, which are not always exact repeats. Equal entries are not always repeated. Where two headings read alike, the source gives them in different places.

Data set [1] deals with photosynthetic electron transport (PET) in spinach chloroplasts. Also on record: method as in earlier work. The following applies: standard, read-out: PET reduction IC50; cited from earlier work.
Data set [2] concerns M. kansasii CIT11/06. The experiment in a line: In vitro antimycobacterial evaluation (alamarBlue, 96 well plate). In kind it is cell-based. The following applies: Mycobacterium kansasii, CIT11/06, 120 h, Middlebrook broth, 37 °C 5 days, read-out: MIC/IC90 M. kansasii. Background: The colour change of resazurin is a common sign of viable cells or microbes.
The test system of data set [3] is Absidia corymbifera 272. The experiment in a line: In vitro antifungal broth microdilution test. Format: cell-based. The following applies: Lichtheimia corymbifera, 272, 35 °C, RPMI 1640 pH 7.0, CLSI M38-A (IC50 value).
Data set [4] deals with Aspergillus fumigatus 231. The experiment in a line: In vitro antifungal broth microdilution test. In kind it is cell-based. The note with it: Aspergillus fumigatus, 231, 35 °C, RPMI 1640 pH 7.0, CLSI M38-A (IC50 value). For orientation: Broth dilution looks for growth in wells or tubes with falling amounts of substance.
In data set [5] the test system is photosynthetic electron transport (PET) in spinach chloroplasts. The experiment in a line: Inhibition of photosynthetic electron transport (PET) in spinach chloroplasts, DCPIP photoreduction. In kind it is biochemical, Spinacia oleracea L. The following applies: DCPIP as electron acceptor, phosphate buffer pH 7.2, read-out: PET reduction IC50. As to the method:
Chloroplasts were prepared from spinach (Spinacia oleracea L.) according to Masarovicova and Kralova. The inhibition of photosynthetic electron transport (PET) in spinach chloroplasts was determined spectrophotometrically (Genesys 6, Thermo Scientific, USA) using an artificial electron acceptor 2,6-dichlorophenol-indophenol (DCIPP) according to Kralova et al. and the rate of photosynthetic electron transport was monitored as a photoreduction of DCPIP. The measurements were carried out in phosphate buffer (0.02 mol/L, pH 7.2) containing sucrose (0.4 mol/L), MgCl2 (0.005 mol/L) and NaCl (0.015 mol/L). The chlorophyll content was 30 mg/L in these experiments and the samples were irradiated (~100 W/m^2) from 10 cm distance with a halogen lamp (250 W) using a 4 cm water filter to prevent warming of the samples (suspension temperature 22 °C). The studied compounds were dissolved in DMSO due to their limited water solubility. […] The inhibitory efficiency of the studied compounds was expressed by IC50 values, i.e., by molar concentration of the compounds causing 50% decrease in the oxygen evolution rate relative to the untreated control.

The subject of data set [6] is Candida tropicalis 156. The experiment in a line: In vitro antifungal broth microdilution test. Format: cell-based. The note with it: Candida tropicalis, 156, 35 °C, RPMI 1640 pH 7.0, CLSI M27-A2 (IC80 value).
The nature of data set [7]: Lipophilicity determination by RP-HPLC (capacity factor k / log k). In kind it is physicochemical. The following applies: C18 column, isocratic MeOH 55.0% / H2O 45.0%. An excerpt: A Waters Alliance 2695 XE HPLC separation module and Waters Photodiode Array Detector 2996 (Waters Corp., Milford, MA, USA) were used. A Symmetry® C18 5 μm, 4.6 × 250 mm, Part No. WAT054275, (Waters Corp., Milford, MA, USA) chromatographic column was used. The HPLC separation process was monitored by Millennium32® Chromatography Manager Software, Waters 2004 (Waters Corp., Milford, MA, USA). A mixture of MeOH p.a. (55.0%) and H2O-HPLC– Mili-Q Grade (45.0%) was used as a mobile phase. The total flow of the column was 0.9 mL/min, injection 30 μL, column temperature 30 °C and sample temperature 10 °C. The detection wavelength 210 nm was chosen. The KI methanolic solution was used for the dead time (tD) determination. Retention times (tR) were measured in minutes.
The capacity factors k were calculated using the Millennium32® Chromatography Manager Software according to formula k = (tR - tD)/tD, where tR is the retention time of the solute, whereas tD denotes the dead time obtained via an unretained analyte. Log k, calculated from the capacity factor k, is used as the lipophilicity index converted to log P scale.

Data set [8] concerns Trichosporon beigelii 1188. Kind of data set: In vitro antifungal broth microdilution test. The note with it: Trichosporon beigelii, 1188, 35 °C, RPMI 1640 pH 7.0, CLSI M27-A2 (IC80 value), read-out: MIC TB. In kind it is cell-based. On the procedure:
Fluconazole (FLU) was used as the standard of a clinically used antimycotic drug. The procedure was performed with twofold dilution of the compounds in RPMI 1640 (Sevapharma a.s., Prague, Czech Republic) buffered to pH 7.0 with 0.165 mol of 3-morpholino-propane-1-sulfonic acid (MOPS, Sigma, Germany). The final concentrations of the compounds ranged from 500 to 0.975 μmol/L. Drug–free controls were included. The MIC determination was performed according to the CLSI (formerly NCCLS) reference protocol M27-A2 for yeasts (IC80 value) and M38-A for moulds (IC50 value). […] The values of MICs were determined after 24 and 48 h of static incubation at 35 °C. For T. mentagrophytes, the final MICs were determined after 72 and 120 h of incubation.

In data set [9] the test system is M. absessus CIT21/06. The experiment in a line: In vitro antimycobacterial evaluation (alamarBlue, 96 well plate). In kind it is cell-based. The following applies: Middlebrook broth, 37 °C overnight, read-out: MIC/IC90 M. absessus.
The subject of data set [10] is Candida albicans ATCC 44859. The experiment in a line: In vitro antifungal broth microdilution test. The note with it: Candida albicans, ATCC44859, 35 °C, RPMI 1640 pH 7.0, CLSI M27-A2 (IC80 value). In kind it is cell-based.
The subject of data set [11] is M. smegmatis MC2155. The experiment in a line: In vitro antimycobacterial evaluation (alamarBlue, 96 well plate). Format: cell-based. The following applies: Mycolicibacterium smegmatis, Middlebrook broth, 37 °C overnight, read-out: MIC/IC90 M. smegmatis.
Data set [12] relates to Candida glabrata 20/I. Kind of data set: In vitro antifungal broth microdilution test. In kind it is cell-based. The note with it: Nakaseomyces glabratus, 20/I, 35 °C, RPMI 1640 pH 7.0, CLSI M27-A2 (IC80 value).
For data set [13], the system named is Candida krusei ATCC 6258. Kind of data set: In vitro antifungal broth microdilution test. The note with it: Pichia kudriavzevii, ATCC6258, 35 °C, RPMI 1640 pH 7.0, CLSI M27-A2 (IC80 value). Format: cell-based.
The test system of data set [14] is Trichophyton mentagrophytes 445. Kind of data set: In vitro antifungal broth microdilution test. In kind it is cell-based.
Data set [15] has as its system Mycobacterium avium complex CIT19/06. The experiment in a line: In vitro antimycobacterial evaluation (alamarBlue, 96 well plate). In kind it is cell-based. The following applies: 120 h, Middlebrook broth, 37 °C 5 days, read-out: MIC/IC90 M. avium complex.
Where [16] appears, read: Trichophyton mentagrophytes, 445, 120 h, pH 7.
Setting [17] is: Trichophyton mentagrophytes, 445, 72h, RPMI 1640 pH 7.0, CLSI M38-A (IC50 value).

What is called IC50 is the concentration needed to halve the response being measured. For the compound `CN(C)C(=O)Nc1ccc(Cl)c(Cl)c1` [DCMU, 3-(3,4-dichlorophenyl)-1,1-dimethylurea], in data set [1], the IC50 was ~1.9 µM and 1.9 µM.
Take `Oc1c(Cl)cc(Cl)c2ccc(C=Cc3ccc(C=Cc4ccc5c(Cl)cc(Cl)c(O)c5n4)cc3)nc12` [Compound 14, 5,7-Dichloro-2-(2-{4-[2-(5,7-dichloro-8-hydroxyquinolin-2-yl)vinyl]phenyl}vinyl)quinolin-8-ol]: the MIC in data set [2] worked out at 40 µg/mL (≈ 72.2 µM); in data set [3] (24h), 15.6 µM (≈ 8.66 µg/mL); in data set [3] (48h), 31.2 µM (≈ 17.3 µg/mL); in [4] (24h) it was 3.9 µM (≈ 2.16 µg/mL); in data set [4] (48h) it was 15.6 µM (≈ 8.66 µg/mL); in [6] (24h), 1.95 µM (≈ 1.08 µg/mL). The MIC is 7.81 µM (≈ 4.33 µg/mL) in [6] (48h); 3.9 µM (≈ 2.16 µg/mL) in [8] (24h); 15.6 µM (≈ 8.66 µg/mL) in [8] (48h); 130 µg/mL (≈ 235 µM) in data set [9]; 0.98 µM (≈ 0.543 µg/mL) in [10] (24h); 3.9 µM (≈ 2.16 µg/mL) in data set [10] (48h). Moreover, the MIC in data set [11] is 40 µg/mL (≈ 72.2 µM); in data set [12] (24h), 0.49 µM (≈ 0.272 µg/mL); in data set [12] (48h), 1.95 µM (≈ 1.08 µg/mL); in data set [13] (24h), 0.98 µM (≈ 0.543 µg/mL); in data set [13] (48h), 1.95 µM (≈ 1.08 µg/mL); in data set [14] (setting [16]), 7.81 µM (≈ 4.33 µg/mL). The MIC in data set [14] (setting [17]) was 3.9 µM (≈ 2.16 µg/mL); in data set [15], over 300 µg/mL. The half-inhibitory concentration (IC50) in data set [5] was 334 µM. Moreover, in data set [7], the log k is listed as 2.5760.
Regarding `Oc1cc(O)cc(C=Cc2ccc3c(Cl)cc(Cl)c(O)c3n2)c1` [Compound 12, 5,7-Dichloro-2-[2-(3,5-dihydroxyphenyl)vinyl]quinolin-8-ol], the MIC in data set [2] was over 300 µg/mL; in [3] (24h), 62.5 µM (≈ 21.8 µg/mL); in data set [3] (48h), 62.5 µM (≈ 21.8 µg/mL); in [4] (24h) it was 125 µM (≈ 43.5 µg/mL); in data set [4] (48h) it was 125 µM (≈ 43.5 µg/mL); in data set [6] (24h), over 125 µM. The MIC in data set [6] (48h) was over 125 µM; in data set [8] (24h), over 125 µM; in [8] (48h), over 125 µM; in data set [9], over 300 µg/mL; in [10] (24h), over 125 µM; in data set [10] (48h), over 125 µM. Also, the MIC in [11] is over 100 µg/mL; in data set [12] (24h) it was over 125 µM; in [12] (48h) it was over 125 µM; in data set [13] (24h), over 125 µM; in [13] (48h), over 125 µM; in data set [14] (setting [16]) it was 15.6 µM (≈ 5.44 µg/mL). For the same compound, the MIC is 15.6 µM (≈ 5.44 µg/mL) in data set [14] (setting [17]) and over 300 µg/mL in data set [15]. Also, the IC50 in data set [5] was 341 µM. The compound also had a log k in data set [7] of 1.5867.

(Values after PMC6256987, “Investigating the Activity Spectrum for Ring-Substituted 8-Hydroxyquinolines” (Molecules, 2010).)
